Where only a bound is given, the exact number is not on record here.

Format in all cases: physicochemical
A short description of data set [1]: Solvent scope of N,N′-dialkylaldaramides (1%) or N,N′-dialkylpentaramides (1%): gelation/solubility behaviour in solvents. Also noted: key: g = gelation; s = soluble; p = precipitates; c = crystallizes; ns = not soluble; v = viscous; g* = unstable gel, precipitates; cg = crystalline gel. The note with it: 1% gelling agent. The source says: It will be understood that the use of the present gelling agents or thickeners to prepare a gel or to thicken a composition is also encompassed by the invention. As is well known, gelling behavior of compounds or compositions is highly unpredictable. […] Preferably, the gelling phenomenon is thermo reversible.
(§1) Preferred examples include aromatic and nonaromatic hydrocarbons, alcohols, ethers, esters, aldehydes, alkanoic acids, epoxides, amines, halogenated hydrocarbons, silicon oils, vegetable oils, phosphoric esters, sulfoxides, water and mixtures thereof. In order to obtain a gel, the gelling agent or thickener is preferably mixed with the composition to be transformed to a gel in an amount of between 0.01 and 50 wt. %, based on the weight of the composition. In a preferred embodiment, the mixture of the gelling agent or thickener and the composition is heated to allow for an even better gel formation or thickening. Typically, the heating will involve raising the temperature of the mixture to about 30-175° C. until a clear solution is obtained. In an alternative embodiment, the gelling agent is first dissolved in a polar or apolar solvent and then added to or sprayed into a composition or solvent to be converted into a gel.
Solvent scope of N,N′-dialkylaldaramides (1%) or N,N′-dialkylpentaramides (1%) 1-24 refers to the compounds prepared in Examples 1-23)

A short description of data set [2]: Cold gelation: addition of a solution of the gelling agent (10% in NMP, 0.05 ml) to an organic solution (0.5 ml). Also noted: key: g = gelation; s = soluble; p = precipitates; c = crystallizes; ns = not soluble; v = viscous; g* = unstable gel, precipitates; cg = crystalline gel. The settings on record: for Cold gelation in 1,2-dichloroethane: 0.05 ml added to 0.5 ml 1,2-dichloroethane; for Cold gelation in Toluene: 0.05 ml added to 0.5 ml Toluene; for Cold gelation in cyclohexane: 0.05 ml added to 0.5 ml cyclohexane; for Cold gelation in methyl laurate: 0.05 ml added to 0.5 ml methyl laurate; for Cold gelation in n-butyl acetate: 0.05 ml added to 0.5 ml n-butyl acetate.
Description: as §1
Addition of a solution of the gelling agent (10% in NMP, 0.05 ml) to an organic solution (0.5 ml, “cold gelation”)

Data set [3] is described as follows: Maximum gelator concentration. An excerpt:
Maximum gelator concentration of 5 (C6-Glu-C6) and 15 (C12-Glu-C12)

Data set [4] in a line: Gelation of N,N′-dialkyladaramides (1%) in mixtures of solvents. On the set-up: key: g = gelation; s = soluble; p = precipitates; c = crystallizes; ns = not soluble; v = viscous; g* = unstable gel, precipitates; cg = crystalline gel. The settings on record: 1% gelling agent.
Description: as §1
Gelation of N,N′-dialkyladaramides (1%) in Mixtures of Solvents

For `O=C(NC1CCCCC1)[C@@H](O)[C@@H](O)[C@H](O)[C@@H](O)C(=O)NC1CCCCC1` [Example 5, dicyclohexyl D-glucaramide], in data set [1], the “Gelation/solubility behaviour in 1,2-dichloroethane” value is “cg”, the “Gelation/solubility behaviour in 2-octanol” value is on record as “cg”, the “Gelation/solubility behaviour in 2-propanol” value is “cg” and the “Gelation/solubility behaviour in Dimethylsulfoxide” value is reported as “cg”. Also, in data set [1], the “Gelation/solubility behaviour in Ethanol” value was “cg”, the “Gelation/solubility behaviour in Hexadecane” value was “ns” and the “Gelation/solubility behaviour in Water” value is “ns”. Moreover, in data set [2], the “Cold gelation in 1,2-dichloroethane” value is on record as “c”, the “Cold gelation in Toluene” value is “c”, the “Cold gelation in cyclohexane” value is reported as “p” and the “Cold gelation in methyl laurate” value is reported as “c”. Further, in data set [2], the “Cold gelation in n-butyl acetate” value is given as “c”. Besides, the “Maximum gelator concentration in 1,2-dichloroethane” value in data set [3] (1,2-dichloroethane) was less than 5%. For the same molecule, the “Maximum gelator concentration in Toluene” value in data set [3] (Toluene) was less than 2.5%. For the same molecule, in data set [3] (cyclohexane), the “Maximum gelator concentration in cyclohexane” value is recorded as less than 5%. In data set [3] (methyl laurate), the “Maximum gelator concentration in methyl laurate” value is less than 2.5%. Besides, the “Maximum gelator concentration in n-butylacetate” value in data set [3] (n-butylacetate) is given as less than 2.5%. Besides, in data set [3] (silicon oil (Dow Corning 702)), the “Maximum gelator concentration in silicon oil (Dow Corning 702)” value is listed as less than 2.5%.

As to `CCCCCCCCCCCCNC(=O)[C@@H](O)[C@@H](O)[C@H](O)[C@@H](O)C(=O)NCCCCCCCCCCCC` [Example 12, didodecyl D-glucaramide], in data set [1], the “Gelation/solubility behaviour in 1,2-dichloroethane” value is on record as “p”, the “Gelation/solubility behaviour in 2-octanol” value is on record as “ns”, the “Gelation/solubility behaviour in 2-propanol” value is reported as “ns” and the “Gelation/solubility behaviour in Cyclohexane” value was “ns”. For the same molecule, in data set [1], the “Gelation/solubility behaviour in Dimethylsulfoxide” value is listed as “s”, the “Gelation/solubility behaviour in Ethanol” value was “p”, the “Gelation/solubility behaviour in Hexadecane” value is “ns” and the “Gelation/solubility behaviour in Toluene” value was “ns”. In data set [1], the “Gelation/solubility behaviour in Water” value is “ns”, the “Gelation/solubility behaviour in n-butylacetate” value was “ns” and the “Gelation/solubility behaviour in p-xylene” value is given as “ns”. For the same molecule, in data set [4], the Gelation in cyclohexane entry is recorded as “ns”, the “Gelation in Dioxane” value was “c”, the “Gelation in H2O” value is given as “ns” and the “Gelation in dioxane/H2O 1:1” value is recorded as “ns”. For the same molecule, in data set [4], the “Gelation in dioxane/H2O 1:2” value is on record as “ns”, the “Gelation in dioxane/H2O 2:1” value is on record as “c” and the “Gelation in dioxane/H2O 3:1” value is “c”. Also, in data set [2], the “Cold gelation in 1,2-dichloroethane” value is “p”, the “Cold gelation in Toluene” value is reported as “p”, the “Cold gelation in cyclohexane” value was “p” and the “Cold gelation in methyl laurate” value is on record as “p”. Moreover, in data set [2], the “Cold gelation in n-butyl acetate” value is reported as “p”.

Regarding `CC(C)=CCCC(C)CCNC(=O)[C@@H](O)[C@@H](O)[C@H](O)[C@@H](O)C(=O)NCCC(C)CCC=C(C)C` (stereo partly drawn) [Example 11, dicitronellyl D-glucaramide], in data set [1], the “Gelation/solubility behaviour in 1,2-dichloroethane” value was “s”, the “Gelation/solubility behaviour in 2-octanol” value is listed as “s”, the “Gelation/solubility behaviour in 2-propanol” value is reported as “s” and the “Gelation/solubility behaviour in Cyclohexane” value is on record as “g*”. In data set [1], the “Gelation/solubility behaviour in Dimethylsulfoxide” value is “s”, the “Gelation/solubility behaviour in Ethanol” value is “s”, the “Gelation/solubility behaviour in Hexadecane” value was “p” and the “Gelation/solubility behaviour in Toluene” value was “p”. In data set [1], the “Gelation/solubility behaviour in Water” value is “c”, the “Gelation/solubility behaviour in n-butylacetate” value is on record as “p” and the “Gelation/solubility behaviour in p-xylene” value is listed as “p”. For the same molecule, in data set [4], the Gelation in cyclohexane entry was “g*”, the “Gelation in Dioxane” value is recorded as “s”, the “Gelation in H2O” value is recorded as “c” and the “Gelation in dioxane/H2O 1:1” value is “p”. In data set [4], the “Gelation in dioxane/H2O 1:2” value is recorded as “p”, the “Gelation in dioxane/H2O 2:1” value was “s” and the “Gelation in dioxane/H2O 3:1” value is listed as “s”. The “Gelation in cyclohexane/dioxane 1:1” value in data set [4] (cyclohexane/dioxane 1:1) is given as “s”.

Take dicyclohexyl galactaramide [Example 7]: in data set [1], the “Gelation/solubility behaviour in 1,2-dichloroethane” value is given as “ns”, the “Gelation/solubility behaviour in 2-octanol” value is on record as “ns”, the “Gelation/solubility behaviour in 2-propanol” value was “c” and the “Gelation/solubility behaviour in Cyclohexane” value is reported as “ns”. Besides, in data set [1], the “Gelation/solubility behaviour in Dimethylsulfoxide” value is reported as “c”, the “Gelation/solubility behaviour in Ethanol” value is “c”, the “Gelation/solubility behaviour in Hexadecane” value is reported as “ns” and the “Gelation/solubility behaviour in Toluene” value was “ns”. Also, in data set [1], the “Gelation/solubility behaviour in Water” value is reported as “ns”, the “Gelation/solubility behaviour in n-butylacetate” value was “ns” and the “Gelation/solubility behaviour in p-xylene” value is recorded as “ns”.

Turning to “di-8-pentadecyl D-glucaramide [Example 18]”, in data set [1], the “Gelation/solubility behaviour in 1,2-dichloroethane” value is given as “s”, the “Gelation/solubility behaviour in 2-octanol” value is “s”, the “Gelation/solubility behaviour in 2-propanol” value is “s” and the “Gelation/solubility behaviour in Cyclohexane” value is recorded as “s”. Further, in data set [1], the “Gelation/solubility behaviour in Dimethylsulfoxide” value is on record as “s”, the “Gelation/solubility behaviour in Ethanol” value is “s”, the “Gelation/solubility behaviour in Hexadecane” value is listed as “s” and the “Gelation/solubility behaviour in Toluene” value was “s”. Moreover, in data set [1], the “Gelation/solubility behaviour in Water” value was “p”, the “Gelation/solubility behaviour in n-butylacetate” value is reported as “s” and the “Gelation/solubility behaviour in p-xylene” value was “s”. Also, the “Gelation/solubility behaviour in 2-methoxyethanol” value in data set [1] (2-methoxyethanol) is reported as “s”. Besides, the “Gelation/solubility behaviour in methyl benzoic acid” value in data set [1] (methyl benzoic acid) is recorded as “s”. The “Gelation/solubility behaviour in methyl laurate” value in data set [1] (methyl laurate) is reported as “s”. For the same molecule, in data set [1] (silicon oil), the “Gelation/solubility behaviour in silicon oil” value is “s”. In addition, in data set [2], the “Cold gelation in 1,2-dichloroethane” value is listed as “s”, the “Cold gelation in Toluene” value is “s”, the “Cold gelation in cyclohexane” value is reported as “s” and the “Cold gelation in methyl laurate” value is “s”. Also, in data set [2], the “Cold gelation in n-butyl acetate” value is on record as “s”.

`CCCCCCCCNC(=O)[C@@H](O)[C@H](O)[C@H](O)[C@@H](O)C(=O)NCCCCCCCC` [Example 10, dioctyl galactaramide]: in data set [1], the “Gelation/solubility behaviour in 1,2-dichloroethane” value was “ns”, the “Gelation/solubility behaviour in 2-octanol” value was “ns”, the “Gelation/solubility behaviour in 2-propanol” value is on record as “ns” and the “Gelation/solubility behaviour in Cyclohexane” value is given as “ns”. Moreover, in data set [1], the “Gelation/solubility behaviour in Dimethylsulfoxide” value is “s”, the “Gelation/solubility behaviour in Ethanol” value is listed as “c”, the “Gelation/solubility behaviour in Hexadecane” value is recorded as “ns” and the “Gelation/solubility behaviour in Toluene” value is recorded as “ns”. In data set [1], the “Gelation/solubility behaviour in Water” value is reported as “ns”, the “Gelation/solubility behaviour in n-butylacetate” value is “ns” and the “Gelation/solubility behaviour in p-xylene” value is listed as “ns”.

`O=C(NC1CCCCCCCCCCC1)[C@@H](O)[C@@H](O)[C@H](O)[C@H](O)C(=O)NC1CCCCCCCCCCC1` [Example 16, dicyclododecyl D-mannaramide]: in data set [1], the “Gelation/solubility behaviour in 1,2-dichloroethane” value is “c”, the “Gelation/solubility behaviour in 2-octanol” value was “s”, the “Gelation/solubility behaviour in 2-propanol” value was “cg” and the “Gelation/solubility behaviour in Cyclohexane” value is recorded as “ns”. For the same molecule, in data set [1], the “Gelation/solubility behaviour in Dimethylsulfoxide” value is given as “p”, the “Gelation/solubility behaviour in Ethanol” value was “p”, the “Gelation/solubility behaviour in Hexadecane” value is given as “ns” and the “Gelation/solubility behaviour in Toluene” value is reported as “ns”. Moreover, in data set [1], the “Gelation/solubility behaviour in Water” value is reported as “ns”, the “Gelation/solubility behaviour in n-butylacetate” value is listed as “ns” and the “Gelation/solubility behaviour in p-xylene” value is given as “ns”.

The values are drawn from patent US6930203B2, “Gelling agents or thickeners” (Applied NanoSystems B.V., priority 2001, dated 2005).
